Tested on: primary mouse OPCs
Assay: differentiation assay, immunocytochemical staining for O4 and MBP
Type: cell-based
Conditions: for MBP expression / O4 expression: normalized to DAPI and negative control
Experimental: The effects of ponesimod, a selective S1P1 receptor agonist, and A971432, a selective S1P5 receptor agonist, on oligodendrocyte precursor cell (OPC) migration and differentiation were evaluated. Nine concentrations were tested (logarithmic dilutions ranging from 0.3 nM to 3000 nM, n=6 per concentration). Fingolimod phosphate (P-FTY720, 3000 nM, n=6) was included as a positive control, 0.1% DMSO was included (min.one/plate) as a negative control. Primary mouse OPCs were harvested on postnatal day 0 or 1 and mixed glia cultures were maintained for 14 days. Primary OPCs were then purified using the shake-off method, and used for either a migration assay, or a differentiation assay, as detailed below. To harvest primary mouse OPCs, cortices are isolated from mouse pups on postnatal day 0 or 1 and placed in ice-cold Dulbecco's Modified Eagle Medium (DMEM) (Sigma Aldrich, Overijse, BE). The cortices are homogenized and centrifuged for 5 minutes at 300 G. The supernatant is removed, and a papain solution is added for 30 minutes (125 uL DMEM solution per brain containing 20 units/ml papain and 40 μg/ml DNase, at 37 degrees). Digestion is inactivated by adding 9 ml cold DMEM. The solution is then centrifuged for 5 minutes at […]. The supernatant is carefully removed, and the pellet is resuspended in 2-5 ml culture medium (DMEM with 10% fetal calf serum (Biowest, Nuaillé, FR) and 1% pen/strep (Sigma Aldrich, Overijse, BE)). […] Cell suspension is divided over PLL (Sigma Aldrich, Overijse, BE)-coated flasks (2 brains per flask) and DMEM is added to a final volume of 10 ml. DMEM is replaced on day 4, 7, and 11. On day 7 and 11, insulin (Sigma Aldrich, Overijse, BE) is added to the medium (5μg/ml). On day 14, OPCs are separated from astrocytes by the shake-off method: flasks are placed on a shaker for 45 minutes at 75 rpm (37 degrees). The medium is then aspirated and discarded, and 10 ml fresh culture medium is added. Flasks are then returned to the shaker for 16-18 hours shaking at 280 rpm. Next, the medium is isolated, and this cell suspension is placed in a plastic petri dish and incubated for 25 minutes. The medium, which contains the OPCs, is then collected and centrifuged for 5 minutes at 300 G. Cells are then resuspended in SATO differentiation medium containing 2% horse serum, 2% B-27, 50 U/ml P/S, 2.4 μl/ml transferrin, 1.04 μl/ml L-thyroxine, 1 μl/ml putrescin, 1 μl/ml progesterone, 1 μl/ml TIT, 0.74 μl/ml sodium selenite and 0.5 μl/ml insulin (all from Sigma-Aldrich, Overijse, BE). […] After shake-off, cells are reset for their differentiation status: one hour after plating, cells are treated with platelet-derived growth factor (PDGF, 10 ng/ml, Peprotech EC Ltd, London, UK) and fibroblast growth factor (fgf, 10 ng/ml, Peprotech EC Ltd, London, UK). Twenty-four hours after plating, cells are treated again with fgf (10 ng/ml). 150,000 cells are plated onto glass coverslips in 24-well plates. […] Aspecific binding was blocked for 30 minutes with 1% bovine serum albumin (BSA) in 0.1% PBS-T, followed by incubation with primary antibodies (O4:R&D systems, Minneapolis, USA, MBP:Merck, Overijse, BE) for four hours at room temperature. After three washing steps with PBS (Lonza group, Bornem, BE), cells are incubated with Invitrogen Alexa Fluor 488 (Alexa 488) or Invitrogen Alexa Fluor 555 (Alexa 555) conjugated secondary antibody for one hour (Life technologies, Carlsbad, USA). […] Sigma-Aldrich, Overijse, […]). Coverslips are mounted with Dako mounting medium (Dako, Carpinteria, USA) and analyzed using a fluorescence microscope (Leica DM2000 LED). Images are quantified using Fiji, ImageJ software. Ponesimod and […] effect on primary mouse OPC differentiation using immunocytochemical staining for O4 and MBP, markers of early and late differentiation stages, respectively, was measured. Fingolimod phosphate, which served as a positive control in the migration assay, was included as well, 0.1% DMSO was included as a negative control. […]

Row | Structure (SMILES) | MBP expression (1000 nM) | O4 expression (1000 nM) | O4 expression (3000 nM) | OPC differentiation (staining for O4 and MBP) (high concentration 1000 nM) | MBP expression (300 nM) | O4 expression (300 nM) | OPC differentiation (staining for O4 and MBP) (high concentrations 300 nM-1000 nM)
1 | O=C(O)C1CN(Cc2ccc(OCc3ccc(Cl)c(Cl)c3)cc2)C1 [A97] | significant increase | marginally increased | marginally increased | modest increases |  |  | 
2 | CCC/N=C1\S/C(=C\c2ccc(OC[C@H](O)CO)c(Cl)c2)C(=O)N1c1ccccc1C [ponesimod, (R)-5-[3-chloro-4-(2,3-dihydroxy-propoxy)-benz[Z]ylidene]-2-([Z]-propylimino)-3-o-tolyl-thiazolidin-4-one] | did not show significantly increased MBP expression | marginally increased |  |  | significant increase | did not show significantly increased O4 expression | Enhanced OPC differentiation

From US20240261267A1, “METHODS FOR TREATING MULTIPLE SCLEROSIS” (Vanda Pharmaceuticals Inc., priority 2021, published 2024)
